Tests used:
[1] = Long-term (6 h) measurement of brain uptake; type: in vivo, male CD-1 mice; conditions: mouse iv 125I-IRA, 6 h circulation; corrected for vascular space and degradation; estimated
Experimental: Substances that are enzymatically stable in blood and have slow clearance from the circulation can slowly enter the brain using the extracellular pathways.[63],[64] […] Albumin enters the brain by extracellular pathways,[70] and so we used albumin in two ways: we used ^99mTc-Alb circulating for 10 min to measure vascular space and ^99mTc-Alb circulating for 6 h to measure brain uptake by extracellular pathways. This is similar to the time-differential methodology developed by Poduslo and Curran to measure a substance’s vascular space and its uptake rate.[71] Following anesthetization, the jugular vein and right carotid artery were exposed. Mice were given an iv injection of 0.1% BSA-LR containing 1 × 10^6 cpm of ^125I-IRA or 5 × 10^5 cpm of ^99mTc-Alb, which circulated for 6 h. Mice receiving only the ^125I-IRA were given an injection of 5 × 10^5 cpm of ^99mTc-Alb 10 min prior to the end of the 6 h circulation time to act as a vascular marker. A separate set of mice received an iv injection of both 1 × 10^6 cpm of ^125I-IRA and 5 × 10^5 cpm of ^99mTc-Alb that circulated for 10 min. Following the 10 min or 6 h circulation time points, blood and brain were collected as described above. Thus, we had B/S ratios for ^99mTc-Alb measuring vascular space (10 min circulation time) and B/S ratios for ^99mTc-Alb measuring vascular space plus uptake by the extracellular pathways (6 h circulation time) which could be compared to the B/S ratios for the ^125I-IRAs after 10 min and 6 h of circulation.
Immediately after counting the radioactivity, the blood and brains from the 10 min and 6 h time points were processed as described in Section 2.5 for in vivo stability. For further comparison, data from the 1 h time point were taken from the original pharmacokinetic uptake study. The ^125I-IRA brain % acid precipitation (%AP) was divided by the ^125I-IRA serum %AP at each time point to calculate the %AP B/S ratio. This value was multiplied by the B/S ratio for each ^125I-IRA to correct for degradation over the 10 min, 1 h, or 6 h time periods. […]

[2] = IRAs of the earlier study; cited from earlier work
Experimental: The rank order of IRAs showing significant brain uptake 1 h after iv injection with respect to AUCs is similar, but not identical to the rank order of their Ki’s (see Figures 5b and 3b). Less similar is the rank order of IRAs for uptake into brain parenchyma defined as the percent reaching the brain that was in its parenchyma vs. its capillaries. The rank order of parenchymal uptake was specifically DA4-JC (89.7%) = albiglutide (BAF) (89.4%) > DA3-CH (86%) > exenatide (84.2%) > Peptide 17 (73.2%) > lixisenatide (66.8%) > dulaglutide (BAF) (61.8%) > DA5-CH (57.6%) > Peptide 21 (43.6%) > liraglu ...

[3] = reported; cited from earlier work
[4] = cited from earlier work; for Brain influx within 1 h of iv injection (detection): mouse iv, radiolabeled IRA, earlier study
Description: The unidirectional blood-to-brain influx rate (Ki) calculated from Figure 2c for all four IRAs tested is graphed with previously calculated Ki’s for other IRAs[50] in Figure 3 by rank.

[5] = rat, 1 hour after iv, LC-MS/MS, mean, cited from earlier work
Experimental: This may reflect in part the sensitivity of our method using small amounts of radiolabeled peptides given the results of a recent study on semaglutide. That study used a novel liquid chromatography-tandem mass spectroscopy (LC-MS/MS) method to measure brain levels of semaglutide in adult male Sprague-Dawley rats injected iv 1 hour earlier with about […] of the unlabeled drug per animal. Detectable ...

Row | Molecule | Amount present in brain at 6 h (AP corrected delta %Inj/g) [1] | Percent reaching the brain that was in parenchyma vs. capillaries [2] | half-lives in human serum [3] | Brain influx within 1 h of iv injection (detection) [4] | semaglutide level in the cerebrum ([5]; cerebrum = cerebral cortex + striatum + amygdala + olfactory bulb) | semaglutide level in the cerebellum [5] | semaglutide level in the hypothalamus [5] | semaglutide level in the brain as a whole ([5]; no vascular wash-out) | Blood to Brain Unidirectional Influx Rate (Ki) ([4]; mouse, in vivo, iv)
1 | CCCCCCCCCCCCCCCC(=O)N[C@@H](CCC(=O)NCCCC[C@H](NC(=O)[C@H](C)NC(=O)[C@H](C)NC(=O)[C@H](CCC(N)=O)NC(=O)CNC(=O)[C@H](CCC(=O)O)NC(=O)[C@H](CC(C)C)NC(=O)[C@H](Cc1ccc(O)cc1)NC(=O)[C@H](CO)NC(=O)[C@H](CO)NC(=O)[C@@H](NC(=O)[C@H](CC(=O)O)NC(=O)[C@H](CO)NC(=O)[C@@H](NC(=O)[C@H](Cc1ccccc1)NC(=O)[C@@H](NC(=O)CNC(=O)[C@H](CCC(=O)O)NC(=O)[C@H](C)NC(=O)[C@@H](N)Cc1cnc[nH]1)[C@@H](C)O)[C@@H](C)O)C(C)C)C(=O)N[C@@H](CCC(=O)O)C(=O)N[C@@H](Cc1ccccc1)C(=O)N[C@H](C(=O)N[C@@H](C)C(=O)N[C@@H](Cc1c[nH]c2ccccc12)C(=O)N[C@@H](CC(C)C)C(=O)N[C@H](C(=O)N[C@@H](CCCNC(=N)N)C(=O)NCC(=O)N[C@@H](CCCNC(=N)N)C(=O)NCC(=O)O)C(C)C)[C@@H](C)CC)C(=O)O [Liraglutide] | 0.03 %Inj/g | 28.7% | 11 to 13 h | did not detect brain influx | – | – | – | – | –
2 | CC[C@H](C)[C@H](NC(=O)[C@H](Cc1ccccc1)NC(=O)[C@H](CCC(=O)O)NC(=O)[C@H](CCCCNC(=O)COCCOCCNC(=O)COCCOCCNC(=O)CC[C@H](NC(=O)CCCCCCCCCCCCCCCCC(=O)O)C(=O)O)NC(=O)[C@H](C)NC(=O)[C@H](C)NC(=O)[C@H](CCC(N)=O)NC(=O)CNC(=O)[C@H](CCC(=O)O)NC(=O)[C@H](CC(C)C)NC(=O)[C@H](Cc1ccc(O)cc1)NC(=O)[C@H](CO)NC(=O)[C@H](CO)NC(=O)[C@@H](NC(=O)[C@H](CC(=O)O)NC(=O)[C@H](CO)NC(=O)[C@@H](NC(=O)[C@H](Cc1ccccc1)NC(=O)[C@@H](NC(=O)CNC(=O)[C@H](CCC(=O)O)NC(=O)C(C)(C)NC(=O)[C@@H](N)Cc1cnc[nH]1)[C@@H](C)O)[C@@H](C)O)C(C)C)C(=O)N[C@@H](C)C(=O)N[C@@H](Cc1c[nH]c2ccccc12)C(=O)N[C@@H](CC(C)C)C(=O)N[C@H](C(=O)N[C@@H](CCCNC(=N)N)C(=O)NCC(=O)N[C@@H](CCCNC(=N)N)C(=O)NCC(=O)O)C(C)C [Semaglutide] | 0.022 %Inj/g | – | ~ 160 h | did not detect brain influx | 7.7 ng/g | 12.6 ng/g | 27 ng/g | 12.0 ng/g | –
3 | lixisenatide: FDA-approved IRA tested in the earlier study (ref 50) | – | 66.8% | – | – | – | – | – | – | 0.3271 µL/g/min

Source: publication PMC11583597, “Brain uptake pharmacokinetics of albiglutide, dulaglutide, tirzepatide, and DA5-CH in the search for new treatments of Alzheimer’s and Parkinson’s diseases” (Tissue Barriers, 2023)
